US5196437A, “Method for treating hepatic diseases and regenerating liver tissue using FK 506 and related compounds” (Fujisawa Pharmaceutical Company, Ltd., priority 1990, dated 1993)

What was measured:
midzonal hepatocytes = test: Eck fistula dogs, left portal vein infusion: electron microscopy of hepatocyte organelles; format: in vivo, dog (beagle)
Protocol: (§1) Twenty adult female beagle dogs underwent Eck fistula (Starzl et al, Lancet, 1976, 1:821-25). After performing a large side to side portacaval shunt, the left and right portal vein branches were ligated. A small infusion catheter was tied into the left branch and led through the abdominal wall and subcutaneously to a battery charged infusion pump that was incorporated into a non-restraining body cast. A constant infusion was started of the control or test fluids at the volume of 20 to 30 ml/day. Oral fluids and diet were allowed ad lib. Four days later, the animals were administered 0.2 mCi/kg (CH3 -^3 H)-thymidine with specific activity of 80-90 Ci/MMol (New England Nuclear, Boston). Two hours later, the dogs were anesthetized and killed.
For studies of the organelles, small cubes of each hepatic sample were taken for electron microscopy. The tissue was post-fixed in glutaraldehyde followed by osmic acid. After embedding in Polarbed. 812 resin, ultrathin sections were cut, stained with lead citrate and examined in a Philip's 300 electron microscope. Measurements of the organelles were made on electron micrographs by Loud's method (Loud, J Cell Biol, 1968, 37:27-46).
(§2) Results are expressed as mean±standard deviation (SD). The Student's t-test was employed in individual experimental groups to compare differences between right and left lobes or between groups. A p value less than 0.05 was considered to be significant.

hepatocytes = test: Eck fistula dogs, left portal vein infusion: hepatocyte size and 3H-thymidine labelled hepatocytes; format: in vivo, dog (beagle); details: for Labeled Hepatocytes/1000 Hepatocytes, Left / Hepatocytes Size Units, Left: left (infused) lobe; for Labeled Hepatocytes/1000 Hepatocytes, Left / Hepatocytes Size Units, Left / Hepatocytes Size Units, Right / Labeled Hepatocytes/1000 Hepatocytes, Right: mean +/- SD; for Hepatocytes Size Units, Right / Labeled Hepatocytes/1000 Hepatocytes, Right: right lobe
Protocol: as §1
Specimens were taken from 2 of the right hepatic lobes and 2 of the left lobes, fixed in 10% buffered formalin, and stained using standard hematoxylin-eosin staining techniques.
Autoradiography was carried out using Ilford K5 nuclear track liquid emulsion and an exposure time of at least 30 days. The number of mitoses, as an index of hepatocyte regeneration, was determined by counting the number of ^3 H-thymidine labelled nuclei per 1000 hepatocytes. […] In normal, unaltered dogs, about 1.6±0.4 mitosis per 1000 hepatocytes are present in the liver, and midzonal hepatocytes are about 0.17±0.01 size-units (Starzl et al, Lancet, 1979, 1:127-130). The exceptional reproducibility of these values and the small standard deviations make it easy to identify changes caused by operations such as Eck fistula, drugs, or other experimental variables.
as §2

[1] = test system: acute and chronic liver allograft rejection; details: humans; compared with previous compounds; cited from earlier work
[2] = 1.0 mg/kg/day, right lobe, mean +/- SD
[3] = infused into the left portal vein

C=CCC1C=C(C)CC(C)CC(OC)C2OC(O)(C(=O)C(=O)N3CCCCC3C(=O)OC(C(C)=CC3CCC(O)C(OC)C3)C(C)C(O)CC1=O)C(C)CC2OC (centres unmarked) [FK 506]
Organelle volume in average midzonal hepatocytes, Lysosomes, Left (midzonal hepatocytes; 1.0 mg/kg/day, left (infused) lobe, mean +/- SD, left vs right p 0.0002): 48.8 +/- 10.9 uM^3 | Organelle volume in average midzonal hepatocytes, Lipids, Left (midzonal hepatocytes; 1.0 mg/kg/day, left (infused) lobe, mean +/- SD, left vs right p 0.0044): 15.6 +/- 2.8 uM^3 | Organelle volume in average midzonal hepatocytes, Microbodies, Left (midzonal hepatocytes; 1.0 mg/kg/day, left (infused) lobe, mean +/- SD, left vs right p 0.1111): 94.2 +/- 10.4 uM^3 | Organelle volume in average midzonal hepatocytes, Mitochondria, Left (midzonal hepatocytes; 1.0 mg/kg/day, left (infused) lobe, mean +/- SD, left vs right p 0.1996): 1284.8 +/- 178.9 uM^3 | Area of rough endoplasmic reticulum per average midzonal hepatocyte, Left (midzonal hepatocytes; 1.0 mg/kg/day, left (infused) lobe, mean +/- SD, p vs vehicle 0.0000, left vs right 0.0002): 32091 +/- 1225 uM^2 | Area of smooth endoplasmic reticulum per average midzonal hepatocyte, Left (midzonal hepatocytes; 1.0 mg/kg/day, left (infused) lobe, mean +/- SD, p vs vehicle 0.0574, left vs right 0.0024): 17876 +/- 642 uM^2 | lysosomes in right lobar hepatocytes (midzonal hepatocytes; 1 mg/kg/day, p<0.05): reduced | microbodies in right lobar hepatocytes (midzonal hepatocytes; 1 mg/kg/day, p=0.07): reduced | Organelle volume in average midzonal hepatocytes, Lipids, Right (midzonal hepatocytes; [2]): 47.8 +/- 11.3 uM^3 | Organelle volume in average midzonal hepatocytes, Lysosomes, Right (midzonal hepatocytes; [2]): 160.0 +/- 23.8 uM^3 | Organelle volume in average midzonal hepatocytes, Microbodies, Right (midzonal hepatocytes; [2]): 136.6 +/- 41.3 uM^3 | Organelle volume in average midzonal hepatocytes, Mitochondria, Right (midzonal hepatocytes; [2]): 1440.6 +/- 318.7 uM^3 | Area of rough endoplasmic reticulum per average midzonal hepatocyte, Right (midzonal hepatocytes; 1.0 mg/kg/day, right lobe, mean +/- SD, p vs vehicle 0.0003): 20839 +/- 1612 uM^2 | Area of smooth endoplasmic reticulum per average midzonal hepatocyte, Right (midzonal hepatocytes; 1.0 mg/kg/day, right lobe, mean +/- SD, p vs vehicle 0.0858): 23154 +/- 193 uM^2 | mitochondria (midzonal hepatocytes; FK 506-infused lobes): neither enlarged (Table V) nor abnormal | number of microbodies, lysosomes and small lipid containing vacuoles (midzonal hepatocytes; FK 506-infused lobes): near normal levels | amount of rough endoplasmic reticulum (midzonal hepatocytes; infused lobes): restored relative to controls | dilatation and disruption of the cisternae (midzonal hepatocytes; infused lobes): minimal | ultrastructure of hepatocytes exposed to infused FK 506 (midzonal hepatocytes; left lobes, even at the smallest doses): almost normal even at the smallest doses | changes in the hepatocytes in the right lobes (midzonal hepatocytes; low doses of FK 506, compared with controls): did not differ greatly from those seen in the controls | Labeled Hepatocytes/1000 Hepatocytes, Left (hepatocytes; 0.01 mg/kg/day, p vs vehicle 0.0044, left vs right 0.0167): 5.43 +/- .35 Labeled Hepatocytes/1000 Hepat | Hepatocytes Size Units, Left (hepatocytes; 0.01 mg/kg/day, p vs vehicle 0.5782, left vs right 0.0004): .111 +/- .008 Size Units | Hepatocytes Size Units, Right (hepatocytes; 0.01 mg/kg/day, p vs vehicle 0.1860): .100 +/- .007 Size Units | Labeled Hepatocytes/1000 Hepatocytes, Right (hepatocytes; 0.01 mg/kg/day, p vs vehicle 0.2477): 4.77 +/- .60 Labeled Hepatocytes/1000 Hepat | Labeled Hepatocytes/1000 Hepatocytes, Left (hepatocytes; 0.1 mg/kg/day, p vs vehicle 0.0005, left vs right 0.0001): 5.98 +/- .43 Labeled Hepatocytes/1000 Hepat | Hepatocytes Size Units, Left (hepatocytes; 0.1 mg/kg/day, p vs vehicle 0.0065, left vs right 0.0000): .137 +/- .008 Size Units | Labeled Hepatocytes/1000 Hepatocytes, Right (hepatocytes; 0.1 mg/kg/day, p vs vehicle 0.0086): 5.19 +/- .38 Labeled Hepatocytes/1000 Hepat | Hepatocytes Size Units, Right (hepatocytes; 0.1 mg/kg/day, p vs vehicle 0.8351): .113 +/- .006 Size Units | Labeled Hepatocytes/1000 Hepatocytes, Left (hepatocytes; 1.0 mg/kg/day, p vs vehicle 0.0001, left vs right 0.0015): 9.13 +/- .89 Labeled Hepatocytes/1000 Hepat | Hepatocytes Size Units, Left (hepatocytes; 1.0 mg/kg/day, p vs vehicle 0.0004, left vs right 0.0009): .162 +/- .012 Size Units | Hepatocytes Size Units, Right (hepatocytes; 1.0 mg/kg/day, p vs vehicle 0.0503): .134 +/- .006 Size Units | Labeled Hepatocytes/1000 Hepatocytes, Right (hepatocytes; 1.0 mg/kg/day, p vs vehicle 0.0510): 5.37 +/- .78 Labeled Hepatocytes/1000 Hepat | changes in directly infused lobes compared with non-infused lobes (hepatocytes; all doses): significantly greater in the directly infused lobes at all doses | changes in non-infused lobes compared to vehicle controls (hepatocytes; high FK 506 doses): significantly effected compared to the vehicle controls | atrophy of the left lobar hepatocytes (hepatocytes; [3]): prevented in proportion to the dose | rate of mitoses (hepatocytes; [3]): increased | evidence of drug toxicity in infused lobes (hepatocytes; lobes infused with FK 506): no evidence of drug toxicity | acute and chronic liver allograft rejection [1]: prevent acute and chronic liver allograft rejection in humans more reliably and completely than has been possible with previous compounds
